Source: patent US20240269197A1, “INSULIN-SENSITIZING AGENT AND BUTYRATE-PRODUCING BACTERIUM” (priority 2021, published 2024)
Counter-ions that a name gives are not always drawn.

Tested on: subjects aged 18-65 years with a HOMA(-IR) score between 2.5 and 3.5 (insulin resistance)
Assay: Reduction in HOMA-IR after 28 days of (non-)butyrate-producing bacteria with or without (non-)insulin-sensitizing agents (Experimental Example 1)
Type: in vivo, human
Set-up: key: Non-measurable: the first rank describes the lowest effect; Very low: very low; Low: low; Low/medium: low/medium; Medium: medium; High: high; Very high: the last rank describes the highest effect
Details: supplement alone, bacterium placebo
Excerpt: The term ‘insulin resistance’ is well known by the skilled person. Within this disclosure, the term encompasses all conditions diagnosed as ‘insulin resistance’ by an (authorized) medical practitioner. The term ‘insulin resistance’ as used herein preferably refers to peripheral insulin resistance and/or hepatic insulin resistance. Insulin resistance may be diagnosed, for example, by the gold standard that is the “hyperinsulinemic euglycemic clamp” (DeFronzo R A, Tobin J D, Andres R, Am J Physiol. 1979 September; 237(3): E214-23). This method measures the amount of glucose necessary to compensate for an increased insulin level without causing hypoglycemia. The procedure may take two hours and typically involves the following steps: Through a peripheral vein, insulin is infused at 10-120 mU per m^2 per minute. In order to compensate for the insulin infusion, glucose 20% is infused to maintain blood sugar levels between 5 and 5.5 mmol/L. The rate of glucose infusion is determined by checking the blood sugar levels every five to ten minutes (Muniyappa R, Lee S, Chen H, Quon M J, January 2008, American Journal of Physiology. Endocrinology and Metabolism. 294 (1): E15-26). […] The homeostatic model assessment for insulin resistance (HOMA or HOMA-IR) is an alternative method used to determine and quantify insulin resistance in a fasting steady-state condition, and correlates reasonably with the golden standard (See e.g., Matthews D R, Hosker J P, Rudenski A S, Naylor B A, Treacher D F, Turner R C (1985). Diabetologia. 28 (7): 412-9. Doi:10.1007/BF00280883. PMID 3899825; and/or A. S. Rudenski; D. R. Matthews; J. C. Levy; R. C. Turner (1991) Metabolism. 40 (9): 908-917). […] The HOMA(-IR) value can be calculated by the following equation: […]
Mixed male/female subjects aged 18-65 years with a HOMA(-IR) score between 2.5 and 3.5, thus indicating insulin resistance, are included in the study. The HOMA-IR can be determined as described herein elsewhere. The HOMA(-IR) is measured at baseline and after 28 days. […]

| Compound | reduction in HOMA-IR value |
| --- | --- |
| OC[C@@H](O)[C@@H](O)[C@H](O)[C@@H](O)CO [Sorbitol, D-glucitol] | Low/medium |
| CN(C)C(=N)NC(=N)N [Metformin, 1,1-dimethylbiguanide hydrochloride, reference compound] | Low/medium |
| chromium(III) picolinate | Very low |
